From patent US20250313642A1, “METHODS OF TREATING ACUTE AND CHRONIC GRAFT VERSUS HOST DISEASE” (Forte Subsidiary, Inc., priority 2022, published 2025)

Columns and labels:
[1] = test system: xenograft GvHD mouse model (NCG-hIL-15 mice transplanted with human PBMCs); assay: Xenograft acute GvHD mouse model, single vs combination therapy, survival; assay type: in vivo; settings: Day 18; treatment D5-D18; ruxolitinib 60 mpk PO twice-daily; Antibody 1 75 mpk IP once-daily; n=10
Experimental: A xenograft GvHD mouse model was utilized to study human T and NK cell-mediated aGvHD and the therapeutic effects of anti-CD122 antibody treatment in single or combination therapy approaches. Female NCG-hIL-15 mice were irradiated at a dosage of 100 cGy on Day 1 of the protocol and human peripheral blood mononuclear cells (PBMCs) were transplanted via injection at a dosage of 1×10^7 cells/200 μL/mice via IV administration into the irradiated mice according to the same xenograft GvHD mouse model design as in Example 4.
Treatment according to 3 different grouping of animals was begun on Day 5 following transplant, as shown in the study design of FIG. 4. Groups of 10 mice were used for each test category. A single treatment group, Group #1, (n=10) received ruxolitinib (at a dosage of 60 mpk) twice-daily by oral administration (PO) beginning on Day 5 and ending on Day 18. Days of treatment were D5, D6, D7, D8, D9, D10, D11, D12, D13, D14, D15, D16, D17, and D18. A combination therapy group. Group #2. (n=10) received ruxolitinib (at a dosage of 60 mpk) twice-daily by oral administration beginning on Day 5 and ending on Day 18. […]
Day 18 was the end of study day for all treatment groups. Animals from all treatment groups were assessed daily beginning on Day 1 and ending on Day 18 for survival following transplant. […]

[2] = test system: allogeneic model of chronic GvHD (BALB/c mice); assay: Allogeneic chronic GvHD mouse model (B10.D2 donor into BALB/c host), GvHD score; assay type: in vivo; settings: Antibody 3 100 mpk IP Q.O.D., Ruxolitinib 60 mpk PO b.i.d.
From the text: An allogeneic model of chronic GvHD according to the animal model design of Ramos et al (Ramos T L et al. Delayed administration of ixazomib modifies the immune response and prevents chronic graft-versus-host disease. Bone Marrow Transplant. 2021 December;56(12):3049-3058) was investigated. In this model as shown in the study design of FIG. 6. B10.D2 mice serve as donor for bone marrow and splenocytes to be transplanted into irradiated BALB/c host mice. […] In this model of cGvHD, there is a low mortality rate extending past 150 days post-transplant and cGvHD symptoms can typically appear starting at approximately 30 days post-transplant. Study design includes treatment start at Day 30 post-transplant and end of study is marked at Day 60 post-transplant. […] Two test treatment groups included Group 2) Antibody 3 anti-CD122 antibody therapy (100 mpk delivered IP every other day (Q.O.D.), and Group 3) ruxolitinib monotherapy (60 mpk PO b.i.d). One negative control group (Group 1) including vehicle (IP Q.O.D.)+vehicle (PO b.i.d.) was also tested. Phenotypic cGvHD score and survival were assessed starting at Day 30 and ending at Day 60 post-transplant.
• BALB/c mice were randomized into treatment groups based on Day 1 bodyweight. • Female BALB/c mice were irradiated (5 Gy) and intravenously injected with B10.D2 donor cells on Day 1. • Cell injection volume was about 200 μL of Bone Marrow cells and splenocytes mixture as described below in treatments. Total cell volume injection=200 μL in PBS. • GvHD Scoring and body weight measurement assessed on Day 30, 33, 35, 37, 39, 41, 43, 45, 48, 51, 53, 56, 58, and 60. • Individual scores according to the grading system below of Grade 0, 1, or 2 were measured and documented on each assessed day for each criterion of body weight loss, activity, posture, fur texture, and skin integrity for each subject in each test group. Each criterion was then summed per subject to yield a total GvHD score by subject per assessed day (e.g., add score for bodyweight loss, activity, posture, fur texture, and skin integrity to yield total GvHD score). • Total GvHD scores per animal per day were then averaged per group to yield average GvHD score per test group and the standard error of the mean (SEM) for each group was determined.

## N#CC[C@H](C1CCCC1)n1cc(-c2ncnc3[nH]ccc23)cn1 [ruxolitinib]
[1]
  survival rate at the end of the study: 30%
[2]; D 30 post-transplant
  Average total GvHD score (mean): 0.6
[2]; D 33 post-transplant
  Average total GvHD score (mean): 0.6
[2]; D 35 post-transplant
  Average total GvHD score (mean): 0.7
[2]; D 39 post-transplant
  Average total GvHD score (mean): 1.2
[2]; D 43 post-transplant
  Average total GvHD score (mean): 1.1
[2]; D 45 post-transplant
  Average total GvHD score (mean): 1.2
[2]; D 48 post-transplant
  Average total GvHD score (mean): 1.2
[2]; D 51 post-transplant
  Average total GvHD score (mean): 1.2
[2]; D 56 post-transplant
  Average total GvHD score (mean): 1.4
[2]; D 60 post-transplant
  Average total GvHD score (mean): 1.7
